Reference: patent publication US12077503B2, “Substituted cyclic amides and their use as herbicides” (FMC CORPORATION, priority 2015, dated 2024)

Assays:
Type in all cases: in vivo
[1] = test system: barnyardgrass (Echinochloa crus-galli); assay: Test G Pre-Emergence Protocol; details: Echinochloa crus-galli, pre-emergence, 312 h, evaluated after 13 days
Method in brief: (§1)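 Scores are visual damage ratings from 0 (no damage) to 100 (total plant kill), taken 13 days after treatment. Compound was sprayed one day post-sowing at 15.625, 62.5 or 250 g/ha in 50:50 acetone/water with 0.5% Tween 20.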

corn (Zea mays) [2] = assay: Test G Pre-Emergence Protocol; details: Zea mays, pre-emergence, 312 h, evaluated after 13 days
Method in brief: as §1

[3] = test system: giant foxtail (Setaria faberi); assay: Test G Pre-Emergence Protocol; details: Setaria faberi, pre-emergence, 312 h, evaluated after 13 days
Method in brief: as §1

[4] = test system: ivy-leaved morning glory (Ipomoea hederacea); assay: Test G Pre-Emergence Protocol; details: Ipomoea, pre-emergence, 312 h, evaluated after 13 days
Method in brief: as §1

[5] = test system: redroot pigweed (Amaranthus retroflexus); assay: Test G Pre-Emergence Protocol; details: Amaranthus retroflexus, pre-emergence, 312 h, evaluated after 13 days
Method in brief: as §1

[6] = test system: velvetleaf (Abutilon theophrasti); assay: Test G Pre-Emergence Protocol; details: Abutilon theophrasti, pre-emergence, 312 h, evaluated after 13 days
Method in brief: as §1

[7] = test system: barnyardgrass (Echinochloa crus-galli); assay: Test G Post-Emergence Protocol; details: Echinochloa crus-galli, post-emergence, 312 h, read-out: Barnyardgrass damage rating
Method in brief: (§2)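 Seedlings grown 8 days in soil in a glasshouse (24/16 °C day/night, 14 h light, 65% humidity) were sprayed post-emergence with compound in acetone/water 50:50 plus 0.5% Tween 20 at 15.625, 62.5 or 250 g/ha. Damage was scored after 13 days on a 0–100 scale (100 = total damage).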

corn (Zea mays) [8] = assay: Test G Post-Emergence Protocol; details: Zea mays, post-emergence, 312 h, read-out: Corn damage rating
Method in brief: as §2

[9] = test system: giant foxtail (Setaria faberi); assay: Test G Post-Emergence Protocol; details: Setaria faberi, post-emergence, 312 h, read-out: Foxtail, Giant damage rating
Method in brief: as §2

[10] = test system: ivy-leaved morning glory (Ipomoea hederacea); assay: Test G Post-Emergence Protocol; details: Ipomoea, post-emergence, 312 h, read-out: Morningglory, Ivy-leaved damage rating
Method in brief: as §2

[11] = test system: redroot pigweed (Amaranthus retroflexus); assay: Test G Post-Emergence Protocol; details: Amaranthus retroflexus, post-emergence, 312 h, read-out: Pigweed, Redroot damage rating
Method in brief: as §2

[12] = test system: velvetleaf (Abutilon theophrasti); assay: Test G Post-Emergence Protocol; details: Abutilon theophrasti, post-emergence, 312 h, read-out: Velvetleaf damage rating
Method in brief: as §2

[13] = 15.625 g ai/ha, evaluated after 13 days (100=total damage to plant; 0=no damage to plant)
[14] = 62.5 g ai/ha, evaluated after 13 days, 100=total damage to plant, 0=no damage to plant
[15] = 250 g ai/ha, evaluated after 13 days, 100=total damage to plant, 0=no damage to plant

CC(C)OC(=O)c1cc([C@H]2CN(C)C(=O)[C@@H]2C(=O)Nc2ccccc2F)ccc1F (racemic) [Compound 1730]
80%: pest or weed control at 250 g/ha [7, 15] | pest or weed control at 250 g/ha [9, 15]
10%: pest or weed control at 62.5 g/ha ([1]; 62.5 g ai/ha, 100=total damage to plant, 0=no damage to plant, read-out: Barnyardgrass damage rating)
90%: pest or weed control at 250 g/ha ([3]; 250 g ai/ha, read-out: Foxtail, Giant damage rating (100=total damage to plant; 0=no damage to plant))
70%: pest or weed control at 250 g/ha ([1]; 250 g ai/ha, read-out: Barnyardgrass damage rating (100=total damage to plant; 0=no damage to plant))
40%: pest or weed control at 62.5 g/ha [7, 14]
50%: pest or weed control at 62.5 g/ha ([3]; 62.5 g ai/ha, 100=total damage to plant, 0=no damage to plant, read-out: Foxtail, Giant damage rating)
20%: pest or weed control at 15.625 g/ha ([3]; 15.625 g ai/ha, read-out: Foxtail, Giant damage rating (100=total damage to plant; 0=no damage to plant)) | pest or weed control at 62.5 g/ha [9, 14]
0%: pest or weed control at 15.625 g/ha ([1]; 15.625 g ai/ha, read-out: Barnyardgrass damage rating (100=total damage to plant; 0=no damage to plant)) | plant injury at 15.625 g/ha (corn (Zea mays) [2]; 15.625 g ai/ha, read-out: Corn damage rating (100=total damage to plant; 0=no damage to plant)) | plant injury at 62.5 g/ha (corn (Zea mays) [2]; 62.5 g ai/ha, 100=total damage to plant, 0=no damage to plant, read-out: Corn damage rating) | plant injury at 250 g/ha (corn (Zea mays) [2]; 250 g ai/ha, read-out: Corn damage rating (100=total damage to plant; 0=no damage to plant)) | pest or weed control at 15.625 g/ha ([4]; 15.625 g ai/ha, read-out: Morningglory, Ivy-leaved damage rating (100=total damage to plant; 0=no damage to plant)) | pest or weed control at 62.5 g/ha ([4]; 62.5 g ai/ha, 100=total damage to plant, 0=no damage to plant, read-out: Morningglory, Ivy-leaved damage rating) | pest or weed control at 250 g/ha ([4]; 250 g ai/ha, read-out: Morningglory, Ivy-leaved damage rating (100=total damage to plant; 0=no damage to plant)) | pest or weed control at 15.625 g/ha ([5]; 15.625 g ai/ha, read-out: Pigweed, Redroot damage rating (100=total damage to plant; 0=no damage to plant)) | pest or weed control at 62.5 g/ha ([5]; 62.5 g ai/ha, 100=total damage to plant, 0=no damage to plant, read-out: Pigweed, Redroot damage rating) | pest or weed control at 250 g/ha ([5]; 250 g ai/ha, read-out: Pigweed, Redroot damage rating (100=total damage to plant; 0=no damage to plant)) | pest or weed control at 15.625 g/ha ([6]; 15.625 g ai/ha, read-out: Velvetleaf damage rating (100=total damage to plant; 0=no damage to plant)) | pest or weed control at 62.5 g/ha ([6]; 62.5 g ai/ha, 100=total damage to plant, 0=no damage to plant, read-out: Velvetleaf damage rating) | pest or weed control at 250 g/ha ([6]; 250 g ai/ha, read-out: Velvetleaf damage rating (100=total damage to plant; 0=no damage to plant)) | pest or weed control at 15.625 g/ha [7, 13] | plant injury at 15.625 g/ha (corn (Zea mays) [8]; [13]) | plant injury at 62.5 g/ha (corn (Zea mays) [8]; [14]) | plant injury at 250 g/ha (corn (Zea mays) [8]; [15]) | pest or weed control at 15.625 g/ha [9, 13] | pest or weed control at 15.625 g/ha [10, 13] | pest or weed control at 62.5 g/ha [10, 14] | pest or weed control at 250 g/ha [10, 15] | pest or weed control at 15.625 g/ha [11, 13] | pest or weed control at 62.5 g/ha [11, 14] | pest or weed control at 250 g/ha [11, 15] | pest or weed control at 15.625 g/ha [12, 13] | pest or weed control at 62.5 g/ha [12, 14] | pest or weed control at 250 g/ha [12, 15]
